{"source": "paper PMC10044725", "about": "“Antioxidant, Anti-Inflammatory and Anti-Diabetic Activities of Tectona grandis Methanolic Extracts, Fractions, and Isolated Compounds” (Antioxidants, 2023)", "key": {"BSA": {"test_system": "BSA", "experiment": "Prevention of AAPH-induced protein oxidative damage", "set-up": "species or system Bovine", "conditions": "AAPH 160 mM; residual BSA", "method": "The protective activities of T. grandis methanolic extract, different fractions and its compounds 15 and 23 on protein oxidative damage were carried out using the method of Yang et al.. Initially, 20 μL BSA solutions (1 mg/mL) in PBS (0.1 M, pH 6.8) were mixed with different concentrations of fractions (40 μL) and compounds (40 μL) and incubated in water at 37 °C for 30 min. Then, 40 μL AAPH (160 mM) was added to the mixture and the reaction continued for 4 h. The control group used the same volume of PBS (0.1 M, pH 6.8) to replace AAPH. The pre-treated samples were added to 5 × SDS loading buffer and treated in water at 95 °C for 15 min. […] After electrophoresis, the gels were stained with Coomassie brilliant blue R-250 dye (0.25%, w/v), and then the gels were decolorized with the decolorizing solution. Finally, images were taken using the SDS-PAGE gel imaging system (ChampChemi 610, China) and the grayscale of Western blot was analyzed using Image J software."}, "IL-1β": {"test_system": "IL-1β", "experiment": "IL-1β secretion in LPS-stimulated RAW 264.7 macrophages (ELISA)", "type": "cell-based, mouse", "conditions": "40 µM, LPS 1 µg/mL, 48 h, vs model control (p < 0.0001)", "method": "(§1) In order to increase cytokine production, macrophages were treated with LPS at a final concentration of 1 µg/mL, and then with T. grandis compounds at 40 µM. The compounds were solubilized in DMEM medium containing 0.1% DMSO. Dexamethasone was employed as a positive control (5 µg/mL). A centrifuge was used to separate the supernatant from the cells after 48 h of incubation, with three replicates per group. Quantification of TNF-α, IL-1β and IL-6 secretion was achieved by following the ELISA manufacturer's instructions. Then, absorbance was measured at 450 nm. Relative TNF-α, IL-1β and IL-6 expression was calculated according to Equation (4). Following the inflammatory factor test, cell viability was detected by CellTiter96® Aqueous One Solution Cell Proliferation Assay. Then, 20 μL/well CellTiter96® Aqueous One Solution Cell Growth Assay reagent was added to the plate and incubated at 37 °C for 8 h, absorbance was measured at […] and relative cell viability was calculated according to Equation (5). Relative content of inflammatory cytokines (%) = (A1/A2)/A3 × 100%(4) where A1 is the concentrations value of inflammatory cytokines of each group, A2 is the relative cell viability of each group (model group is 100) and A3 is the concentration of inflammatory cytokines of model group. Cell viability rate (%) = B1/B2 × 100%(5) where B1 is the OD value of each fraction group or positive control group and B2 is the OD value of the model control."}, "pBR322 DNA": {"test_system": "pBR322 DNA", "experiment": "Prevention of AAPH-induced DNA oxidative damage", "conditions": "AAPH 20 mM; p < 0.0001 vs model", "method": "The effects of T. grandis methanolic extract, different fractions and its compounds 15, 19 and 23 on the prevention of DNA oxidative damage were carried out using the method of Han et al.. Initially, 8 μL pBR322 DNA (50 μg/mL) in PBS (0.1 M, pH 6.8) was mixed with different concentrations of T. grandis fractions and its compounds (12 μL) and incubated in water at 37 °C for 30 min. Then, 5 μL AAPH (20 mM) was added to the mixture and the reaction continued for 60 min. The control group used the same volume of PBS (0.1 M, pH 6.8) to replace AAPH. The pre-treated samples were mixed with 5 × DNA loading buffer, and the mixture (8 μL) was taken for 1.0% agarose gel electrophoresis for 25 min. After electrophoresis, the gels were stained with ethidium bromide for 20 min. Finally, images were taken using a DNA gel imaging system (ChampChemi 610, Beijing sage creation Co., Ltd. Beijing, China)."}, "TNF-α": {"test_system": "TNF-α", "experiment": "TNF-α secretion in LPS-stimulated RAW 264.7 macrophages (ELISA)", "type": "cell-based, mouse", "conditions": "40 µM, LPS 1 µg/mL, 48 h, vs model control (p < 0.01)", "method": "as §1"}, "3T3-L1 adipocytes": {"test_system": "3T3-L1 adipocytes", "experiment": "Glucose uptake assay in 3T3-L1 adipocytes", "type": "cell-based, mouse", "conditions": "compounds at 40 µM, 48 h (Figure 11A(b))", "method": "Mouse 3T3-L1 preadipocyte cells were maintained in DMEM supplemented with 10% NBCS and 1% P/S at 37 °C in a humidified environment with 5% CO2, and then began starvation when the cells grew to 80% confluence (day 0). To facilitate differentiation to adipocytes, 2-days post-confluent cells were placed in 10% FBS DMEM supplemented with 1% P/S, 0.5 mM IBMX, 1 μM Dex, 1 μM Rosi and 100 nM insulin (day 2). For another three days (day 5), the medium was changed to high glucose DMEM containing 10% FBS, 1% P/S and 100 nM insulin for one day (day 6), and the 3T3-L1 preadipocytes were fully differentiated into mature adipocytes.\nNext, differentiated 3T3-L1 adipocytes at a density of 5 × 10^4 cells/well were cultured with DMEM in 96-well plates and divided into the blank control group, model group, insulin group (100 ng/mL), berberine group (10 μg/mL) and compound groups (40 μM). […] After 24 and 48 h of culture, glucose uptake was initiated by the addition of […] medium and 190 μL glucose detection reagent to each well, reaction at 37 °C for 15 min, and the glucose uptake was measured according to the operating instructions of the glucose content determination kit. Following the glucose uptake test, cell viability was detected by CellTiter96® Aqueous One Solution Cell Proliferation Assay. […] Absorbance was measured at 490 nm and relative cell viability was calculated according to Equation (7). […]"}, "[1]": {"experiment": "ABTS radical cation scavenging assay (Trolox equivalent)", "conditions": "compounds at 50 μM", "method": "The ABTS radical cation (ABTS•+) scavenging activities were conducted in accordance with the instructions for the ABTS kit. The total antioxidant activity values were estimated using the Trolox equivalent antioxidant capacity test. The detection concentration of methanolic extract and different fractions was 80 μg/mL, and the detection concentration of compounds (1–23) was 50 μM. […] Then, 190 μL of ABTS working reagent was mixed with 10 μL sample and incubated at room temperature for 5 min. The absorbance was then measured using a microplate reader at 734 nm, and the scavenging activity was calculated according to Equation (2). The blank control group used DMSO to replace the sample. […] The analysis was performed in triplicates, 1.424, 0.0012 was a constant."}}, "note": "Marks after values point to notes of the source that are not given here."}
{"smiles": "O=C(O)c1cc(O)c(O)c(O)c1", "note": "[Compound 23, gallic acid]", "values": [{"measurement": "concentration at which a protective effect against protein oxidative damage begins", "setting": "BSA", "result": 320, "unit": "µM"}, {"measurement": "effect on IL-1β inflammatory factor level", "setting": "IL-1β", "result": "significant decrease"}, {"measurement": "concentration at which a protective effect against DNA oxidative damage begins", "setting": "pBR322 DNA", "result": 0.6, "unit": "mM"}, {"measurement": "effect on TNF-α inflammatory factor level", "setting": "TNF-α", "result": "could decrease"}, {"measurement": "effect on glucose uptake", "setting": "3T3-L1 adipocytes", "result": "significantly promote"}, {"measurement": "ABTS Assay", "setting": "[1]", "result": "0.95 ± 0.02 ^a mmol Trolox/L"}]}
